In brackets after ≈: the same amount, converted by molar mass.
How the values were obtained:
[1] = test system: P. multocida; assay: Murine P. multocida intranasal challenge study, treatment 18 hours after challenge, survival; format: in vivo, mice; conditions: subcutaneous 18 hours after challenge (5×10^3 CFU/mouse); tulathromycin 16 mg/kg, M9 32 mg/kg, ceftiofur 9 mg/kg
Procedure: In one murine P. multocida intranasal challenge study, mice were administered tulathromycin (16 mg/kg; T02), M9 (32 mg/kg; T03), or ceftiofur (9 mg/kg; T04) by subcutaneous injection 18 hours after bacterial challenge (5×10^3 CFU/mouse) for lung tissue RNA sequence analysis. Survival at Day 7 was about 80%, 50%, and 90% for T02, T03, and T04, respectively, compared to placebo at 0%. Differential gene expression from total lung tissue RNA sequence analysis indicated at least 226 unique genes were up or down regulated (with significance) for T03. Output from ingenuity pathway analysis of these unique genes predicted major upstream regulators of the involved pathways. Data was analyzed based on the number of genes being modulated in the same direction that were associated with a given upstream regulator. An activation z-score of 2 or greater is considered significant and the direction change is indicated by + (activated) or -(inhibited). The top 5 pathways included: IL-9 signaling, glucocorticoid receptor signaling, prolactin signaling, JAK STAT signaling, and IL-17 signaling. The top 6 upstream regulators (activation z-score) included: lipopolysaccharide (−6.725), TNF (−4.669), IFNγ (−5.759), IL-1β (−5.947), STAT1 (−2.787), and poly rl: rC-RNA (−5.289). Even though this study was run in the murine model, the top upstream regulators identified as being modulated by M9 include an almost ubiquitous overlap with the pathways identified in the natural disease study as being key mediators in BRD, and therefore is modulating highly relevant pathways in BRD pathobiology.

[2] = test system: TNF-α; assay: Whole bovine blood assay, LPS-induced TNF-α; format: cell-based; conditions: Bos taurus, fresh whole bovine blood, LPS stimulant; top drug concentration 250 μM
In short: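 Fresh heparinized bovine whole blood was preincubated with compound 4 h at 37 °C, then stimulated with LPS (final 1 μg/mL) for 18 h at 37 °C. Plasma TNF-α was quantified by MSD U-Plex chemiluminescent immunoassay, normalized to total protein (BCA), and IC50 taken for LPS-induced TNF-α inhibition.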

[3] = test system: IL-1β; assay: Whole bovine blood assay, LPS-induced IL-1β (inhibition / overstimulation); format: cell-based; conditions: Bos taurus, 18 h, drug concentration giving overstimulation (OS) of LPS-induced IL-1β, top concentration 250 μM
In short: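 IL-1β was quantified by MSD U-Plex chemiluminescence in plasma and normalized to BCA total protein. Bovine blood was pretreated 4 h at 37 °C with compound dilutions before 18 h LPS challenge (1 μg/mL final). Rising IL-1β at high concentrations was recorded as overstimulation.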

[4] = test system: P. multocida 46572; assay: In vivo mouse lung infection challenge model (murine efficacy), survival; parameters: species or system CD-1 female mice; conditions: P. multocida 46572 intranasal challenge; 20 mg/kg subcutaneous; harmonized relative to vehicle (−) and M9 (+) controls
Procedure: The challenge organism was P. multocida 46572. Target challenge concentration was 5×10^2 CFU/mouse. Isolated colonies from overnight growth (37° C. with 5% CO2) on trypticase soy agar (TSA II) blood plates were transferred to room temperature Brain Heart Infusion Broth (BHIB). The broth culture was incubated 3.5-4 hours to approximately mid-log phase of growth, as measured by forward light scatter at 600 nm (OD600, 0.200). The culture was centrifuged to collect the bacterial pellet. The pellet was re-suspended in BHIB and adjusted to provide an approximate concentration of 2.7 log 10 colony forming units (CFU) in 0.04 mL at the highest concentration. The challenge inoculum concentration was confirmed by serial dilutions of the inoculum for CFU enumeration. On Day −5, CD −1 female mice were received. Mice were given standard rodent diet and water ad libitum. On Day 0, bacterial inoculum (0.04 mL) was administered to each mouse (n=36) intranasally. Compounds of the invention were dosed at 20 mg/kg (0.1 mL) in a buffered (˜pH 5.4) propylene glycol, monothioglycerol and water solution by subcutaneous injection. Animals were observed from Days 1-10. The study was terminated on Day 10. In addition, some treatment groups were sampled at 6, 24, and 48 hours post bacterial challenge for RNA sequence analysis of lung tissue.
The murine efficacy model (P.multocida challenge) was optimized, and the treatment group size was powered to be able to observe statistically significant improvement of survival to expected ranges for immunomodulatory compounds. The experimental design was a randomized complete block design. Mice were individually identified and treatment groups comingled within a cage, with every treatment group equally represented across cages. Mortality was the primary variable. Mortality data was analyzed using a generalized mixed model with fixed effect of treatment and random effect of block. Survival time was also analyzed using the SAS PHREG (survival analysis) procedure to examine whether there were significant differences between treatment groups and the control group. Numerous compounds of the invention and M9 (positive control) were tested in this model at a dose of 20 mg/kg (Table 3). Typical percent survival for no treatment control is in the range of 0-20% based on study to study variation in challenge inoculum and rate of infection. […] Mouse survival for M9 was about 90-100%, further supporting its residual antibacterial properties against the bacterial strain.

[5] = test system: IL-6; assay: Whole bovine blood assay, LPS-induced IL-6; format: cell-based; conditions: Bos taurus, fresh whole bovine blood, LPS stimulant; top drug concentration 250 μM
[6] = test system: H. somni; assay: MIC, H. somni strains; format: cell-based; conditions: for MIC values, range: H. somni strains
Excerpt: (§1) Primary screening of the compounds of the invention included the evaluation of antibacterial activity of analogs through determination of microbial inhibition concentration (MIC) as per CLSI guidelines. The screening panel included the relevant BRD pathogens: 1) M. haemolytica (e.g., 12726, 46571 and 49023, all AHDRCC; and 33396 (ATCC)); and 2) P. multocida (e.g., 34135 and 46572 (both AHDRCC) and 43137 (ATCC)). In some instances, H. somni (A700025K) pathogens were also included in the screening panel. The AHDRCC strains originated from the Zoetis BRD/SRD surveillance program and refer to the Animal Health Development and Research Culture Collection. In addition, the screen assessed S. aureus (29213 ATCC) as a representative Gram-positive isolate, E.faecalis (19433 ATCC) as a commensal gram-positive gastrointestinal bacterium and E. coli (100, 3110 and 25922 (ATCC)) for the evaluation of efflux potential. The screening panel BRD pathogens were assessed in determining antibacterial activity of the Formula (1) compounds.
(§2) All relevant BRD pathogens were initially screened at a top concentration of 64 μg/mL of a Formula (1) compound in an eleven-point dilution series. […] If an Example was purified further, the MICs moved […] essentially two dilutions across all strains tested in the screening panel.
(§3) In-Vitro MIC Model Compounds were analyzed for antibacterial activity against a panel of animal health specific gram-positive and gram-negative clinical strains by diluting compounds in DMSO to an appropriate stock concentration to determine the Minimal Inhibitory Concentration (MIC) via a semi-automated broth micro-dilution method (CLSI reference method) with QC strains and anti-microbial agent(s). Specifically, bacteria were grown overnight on TSA w/5% sheep blood agar plates and diluted in saline buffer to a McFarland Standard 0.5, then further diluted in cation-ion adjusted Mueller Hinton Broth to a final concentration of approximately 5×10^5 CFU/mL. 100 μL of inoculated media was added to 96-well plate(s) with 3 μL of serially diluted compound in each row. Depending on strain (see CLSI reference method), bacteria were incubated 18-22 hours at 35-37° C. in ambient air, with 5% CO2 or anaerobically (up to 48 hours).

[7] = test system: M. haemolytica; assay: MIC, M. haemolytica strains; format: cell-based
Excerpt: as §1, §2, §3

[8] = test system: P. multocida; assay: MIC, P. multocida strains; format: cell-based
Excerpt: as §1, §2, §3

[9] = test system: natural bovine respiratory disease (BRD); assay: Natural bovine respiratory disease study, treatment failure; format: in vivo, beef calves; conditions: Zactran group T04 (dose not given), 14-day observation
[10] = lung isolates at necropsy, natural BRD study, n=116
[11] = lung isolates at necropsy, natural BRD study, n=33
[12] = lung isolates at necropsy, natural BRD study, n=25

| Structure (SMILES) | IC50 [2] [µM] | minimal effective concentration [3] [µM] | % Survival [4] [%] | IC50 [5] [µM] | MIC values, range [6] [µg/mL] | other results |
| --- | --- | --- | --- | --- | --- | --- |
| CO/N=C(\C(=O)N[C@@H]1C(=O)N2C(C(=O)O)=C(CSC(=O)c3ccco3)CS[C@H]12)c1csc(N)n1 [ceftiofur] |  |  |  |  |  | Survival at Day 7 [1]: ~90% |
| CC[C@H]1OC(=O)[C@H](C)[C@@H](O[C@H]2C[C@@](C)(OC)[C@](O)(CNCCCN3CCCCC3)[C@H](C)O2)[C@H](C)[C@@H](O[C@@H]2O[C@H](C)C[C@H](N(C)S(=O)(=O)c3ccc(Cl)cc3)[C@H]2O)[C@](C)(O)C[C@@H](C)CN[C@H](C)[C@@H](O)[C@]1(C)O [Example B-58, 4-chloro-N-((2S,3R,4S,6R)-2-(((2R,3S,4R,5R,8R,10R,11R,12S,13S, 14R)-2-ethyl-3,4,10-trihydroxy-13-(((2R,4R,5S,6S)-5-hydroxy-4-methoxy-4,6-dimethyl-5-(((3-(piperidin-1-yl)propyl)amino)methyl)tetrahydro-2H-pyran-2-yl)oxy)-3,5,8,10,12,14-hexamethyl-15-oxo-1-oxa-6-azacyclopentadecan-11-yl)oxy)-3-hydroxy-6-methyltetrahydro-2H-pyran-4-yl)-N-methylbenzenesulfonamide] | 29 | 40 | 32 | 75 |  |  |
| CS(=O)(=O)c1ccc([C@@H](O)[C@@H](CF)NC(=O)C(Cl)Cl)cc1 [florfenicol] |  |  |  |  | 0.12 to 2 |  |
| CCCNC[C@]1(O)[C@H](C)O[C@@H](O[C@H]2[C@H](C)[C@@H](O[C@@H]3O[C@H](C)C[C@H](N(C)S(=O)(=O)N(C)C4CCCCC4)[C@H]3O)[C@](C)(O)C[C@@H](C)CN[C@H](C)[C@@H](O)[C@](C)(O)[C@@H](CC)OC(=O)[C@@H]2C)C[C@@]1(C)OC [Example B-49, (2R,3S,4R,5R,8R,10R,11R,12S,13S,14R)-11-[(2S,3R,4S,6R)-4-[[cyclohexyl(methyl)sulfamoyl]-methylamino]-3-hydroxy-6-methyloxan-2-yl]oxy-2-ethyl-3,4,10-trihydroxy-13-[(2R,4R,5S,6S)-5-hydroxy-4-methoxy-4,6-dimethyl-5-(propylaminomethyl)oxan-2-yl]oxy-3,5,8,10,12,14-hexamethyl-1-oxa-6 azacyclopentadecan-15-one] | 37 | 6 | 53 | 16 |  |  |
| CC[C@H]1OC(=O)[C@H](C)[C@@H](O)[C@H](C)[C@@H](O[C@@H]2O[C@H](C)C[C@H](N(C)S(=O)(=O)c3ccccc3)[C@H]2Oc2ccccc2)[C@](C)(O)C[C@@H](C)CN(C)[C@H](C)[C@@H](O)[C@]1(C)O [Example A-3, N-((2S,3R,4S,6R)-2-(((2R,3S,4R,5R,8R,10R,11R,12S,13S,14R)-2-ethyl-3,4, 10,13-tetrahydroxy-3,5,6,8,10, 12,14-heptamethyl-15-oxo-1-oxa-6-azacyclopentadecan-11-yl)oxy)-6-methyl-3-phenoxytetrahydro-2H-pyran-4-yl)-N-methylbenzenesulfonamide] | 23 | 14 | 24 | 43 |  |  |
| CCN1CCN(c2cc3c(cc2F)c(=O)c(C(=O)O)cn3C2CC2)CC1 [enrofloxacin] |  |  |  |  | <0.06 to 1 |  |
| CCCN1C[C@H](C)[C@@H](O)[C@](C)(O)[C@@H](CC)OC(=O)[C@H](C)[C@@H](O[C@H]2C[C@@](C)(OC)[C@@H](O)[C@H](C)O2)[C@H](C)[C@@H](O[C@@H]2O[C@H](C)C[C@H](N(C)C)[C@H]2O)[C@](C)(O)C[C@H]1C [gamithromycin, reference compound] |  |  |  |  | 0.25 to 8 | MIC50 [7, 10]: 1 µg/mL (≈ 1.29 µM); MIC90 [7, 10]: >64 µg/mL; MIC values, range ([7]; the same M. haemolytica strains of the panel): 0.5 to 1 µg/mL; MIC50 [8, 11]: 1 µg/mL (≈ 1.29 µM); MIC90 [8, 11]: >64 µg/mL; MIC values, range ([8]; the same P. multocida strains of the panel): 1 to 2 µg/mL; MIC50 [6, 12]: 0.25 µg/mL (≈ 0.322 µM); MIC90 [6, 12]: 2 µg/mL (≈ 2.57 µM); MIC Range [6, 12]: 0.12 to 2 µg/mL; Percent failure [9]: 29.8% |
